Results: patent US7786141B2 (Vertex Pharmaceuticals Incorporated, priority 2004, dated 2010)

Columns and labels:
M1 muscarinic receptor = molecular target: T1, M1 muscarinic receptor (Homo sapiens, UniProt P11229); test: Functional mobilization of intracellular calcium (FLIPR) in M1-CHO cells; assay type: cell-based; conditions: Table 4; for Emax: 100% efficacy is the maximum response obtained with the Carbachol control; for M1 Activity: modulating M1 receptor
T1 construct: expressed in transfected cells; host or cells: CHO (M1-CHO)
T1 sequence (P11229 1-460): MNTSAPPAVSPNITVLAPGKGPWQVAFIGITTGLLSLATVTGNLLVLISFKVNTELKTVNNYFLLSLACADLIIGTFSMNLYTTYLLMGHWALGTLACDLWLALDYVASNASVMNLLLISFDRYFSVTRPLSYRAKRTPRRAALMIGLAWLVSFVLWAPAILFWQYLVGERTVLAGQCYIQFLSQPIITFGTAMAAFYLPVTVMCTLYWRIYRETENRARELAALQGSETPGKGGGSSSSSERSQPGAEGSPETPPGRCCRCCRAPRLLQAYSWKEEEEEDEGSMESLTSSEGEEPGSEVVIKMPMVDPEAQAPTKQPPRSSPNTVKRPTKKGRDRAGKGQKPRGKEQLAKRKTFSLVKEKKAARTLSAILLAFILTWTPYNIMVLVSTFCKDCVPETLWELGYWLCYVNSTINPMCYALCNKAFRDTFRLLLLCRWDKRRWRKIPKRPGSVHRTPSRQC
Method in brief: (§1)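 Measured via Fluo-3 fluorescence on a FLIPR, CHO cells with either muscarinic subtype received compound in 0.5% DMSO. Antagonism was assessed after 15 min pre-incubation followed by carbachol at each subtype's EC80; agonism from compound addition alone.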

M4 muscarinic receptor = molecular target: T2, M4 muscarinic receptor (Homo sapiens, UniProt P08173); test: Functional mobilization of intracellular calcium (FLIPR) in M4-CHO cells; assay type: cell-based; conditions: Table 4; for Emax: 100% efficacy is the maximum response obtained with the Carbachol control; for M4 Activity: modulating M4 receptor
T2 construct: expressed in transfected cells; host or cells: CHO (M4-CHO)
T2 sequence (P08173 1-479): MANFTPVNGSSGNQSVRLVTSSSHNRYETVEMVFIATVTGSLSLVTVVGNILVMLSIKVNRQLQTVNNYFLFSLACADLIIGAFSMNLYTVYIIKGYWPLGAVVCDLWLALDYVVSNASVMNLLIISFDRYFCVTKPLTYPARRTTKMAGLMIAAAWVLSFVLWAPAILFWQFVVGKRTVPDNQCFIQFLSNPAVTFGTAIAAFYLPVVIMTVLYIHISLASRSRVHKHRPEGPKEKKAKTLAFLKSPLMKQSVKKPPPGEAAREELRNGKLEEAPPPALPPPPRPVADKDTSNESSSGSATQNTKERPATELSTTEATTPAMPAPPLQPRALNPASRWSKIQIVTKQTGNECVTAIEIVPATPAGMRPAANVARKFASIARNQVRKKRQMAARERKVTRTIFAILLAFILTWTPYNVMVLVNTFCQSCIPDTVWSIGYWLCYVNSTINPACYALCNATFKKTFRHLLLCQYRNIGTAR
Method in brief: as §1

Row | Compound | Emax (M1 muscarinic receptor) [%] | M1 Activity (M1 muscarinic receptor) | Emax (M4 muscarinic receptor) [%] | M4 Activity (M4 muscarinic receptor)
1 | OC1CC2(CCN([C@@H]3C[C@H]4CC[C@@H]3C4)CC2)c2ccccc21 (some centres unmarked) [compound 536] | 25 to 100 | xxx (activity was measured to be less than 2.0 μM) | 25 to 100 | xxx (activity was measured to be less than 2.0 μM)
2 | CCOC(=O)N1CCC(N2CCC3(CC[C@H](NC(C)=O)c4ccccc43)CC2)CC1 [compound 537] | 25 to 100 | xxx (activity was measured to be less than 2.0 μM) | 25 to 100 | xxx (activity was measured to be less than 2.0 μM)
3 | CCOC(=O)N1CCC(N2CCC3(C[C@H](NC(C)=O)c4cc(F)ccc43)C2)CC1 (some centres unmarked) [compound 538] | 25 to 100 | xx (activity was measured to be between 2.0 μM and 5.0 μM) | < 25 | x (activity was measured to be greater than 5.0 μM)
4 | COCCOC(=O)N1CCC(N2CCC3(CC2)CN(C(C)=O)c2ccccc23)CC1 [compound 539] | 25 to 100 | xx (activity was measured to be between 2.0 μM and 5.0 μM) | 25 to 100 | xx (activity was measured to be between 2.0 μM and 5.0 μM)
5 | COC(=O)N1CC[C@@H](CN2CCC3(CC2)CN(C(=O)N(C)C)c2ccc(F)cc23)C1 [compound 540] | 25 to 100 | xxx (activity was measured to be less than 2.0 μM) | 25 to 100 | xxx (activity was measured to be less than 2.0 μM)
6 | CC(=O)NC1CCC2(CCN(CCC3CCCN(S(C)(=O)=O)C3)CC2)c2ccccc21 (centres unmarked) [compound 541] | 25 to 100 | xxx (activity was measured to be less than 2.0 μM) | < 25 | x (activity was measured to be greater than 5.0 μM)
7 | O=C(O)C1CC2(CCN(C3CCCC3)CC2)c2ccccc21 (centres unmarked) [compound 542] | < 25 | x (activity was measured to be greater than 5.0 μM) | < 25 | x (activity was measured to be greater than 5.0 μM)
8 | CCOC(=O)N1CCC(N2CCC3(CC2)CN(C(=O)C2(O)CC2)c2ccc(F)cc23)CC1 [compound 543] | > 100 | xxx (activity was measured to be less than 2.0 μM) | 25 to 100 | xxx (activity was measured to be less than 2.0 μM)
9 | CN(C)C(=O)N1CC2(CCN(C3CCN(C(=O)CC4CCCC4=O)CC3)CC2)c2cc(F)ccc21 (centres unmarked) [compound 544] | 25 to 100 | xx (activity was measured to be between 2.0 μM and 5.0 μM) | < 25 | xx (activity was measured to be between 2.0 μM and 5.0 μM)
10 | CC(=O)N1CC2(CCN(C3CCN(c4nc5ccccc5s4)CC3)CC2)c2ccccc21 [compound 545] | < 25 | x (activity was measured to be greater than 5.0 μM) | < 25 | x (activity was measured to be greater than 5.0 μM)
11 | COc1cc2c(cc1OC)C1(CCN(C3C4CC5CC(C4)CC3C5)CC1)C[C@@H]2NC(C)=O (some centres unmarked) [compound 546] | 25 to 100 | x (activity was measured to be greater than 5.0 μM) | 25 to 100 | x (activity was measured to be greater than 5.0 μM)
12 | CC(=O)N1CC2(CCN(C3CCNCC3)CC2)c2cc(F)ccc21 [compound 547] | 25 to 100 | xx (activity was measured to be between 2.0 μM and 5.0 μM) | 25 to 100 | x (activity was measured to be greater than 5.0 μM)
13 | O=C(O)C1CC2(CCN(CC3CCCC3)CC2)c2ccccc21 (centres unmarked) [compound 548] | < 25 | x (activity was measured to be greater than 5.0 μM) | < 25 | x (activity was measured to be greater than 5.0 μM)
14 | C#CCCOC(=O)N1CC[C@H](CN2CCC3(CC2)CN(C(C)=O)c2ccccc23)C1 [compound 549] | < 25 | x (activity was measured to be greater than 5.0 μM) | < 25 | x (activity was measured to be greater than 5.0 μM)
